Data as given in PubChem BioAssay (NCI).
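Values below derive from 48-hour exposures of cells grown in 96-well plates, with endpoints linearly interpolated between the two concentrations bracketing the appropriate inhibition level. Here, GI50 denotes the concentration required for 50% inhibition of growth. TGI denotes the concentration required for complete inhibition of growth.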

Legend:
Experiment in all cases: inhibition of tumour cell growth, NCI panel, 48 h
NCI-H522 lung = tested on: NCI-H522 lung
SF-268 CNS = tested on: SF-268 CNS
SNB-19 CNS = tested on: SNB-19 CNS
786-0 renal = tested on: 786-0 renal
K-562 leukemia = tested on: K-562 leukemia
HOP-62 NSCLC = tested on: HOP-62 NSCLC
HCC-2998 colon = tested on: HCC-2998 colon
HS 578T breast = tested on: HS 578T breast
MALME-3M melanoma = tested on: MALME-3M melanoma
LOX IMVI melanoma = tested on: LOX IMVI melanoma

Structure (SMILES)	TGI (NCI-H522 lung) [µM]	TGI (SF-268 CNS) [µM]	TGI (SNB-19 CNS) [µM]	TGI (786-0 renal) [µM]	TGI (K-562 leukemia) [µM]	TGI (HOP-62 NSCLC) [µM]	TGI (HCC-2998 colon) [µM]	TGI (HS 578T breast) [µM]	TGI (MALME-3M melanoma) [µM]	TGI (LOX IMVI melanoma) [µM]	GI50 (786-0 renal) [µM]	GI50 (HS 578T breast) [µM]	GI50 (NCI-H522 lung) [µM]	GI50 (SF-268 CNS) [µM]	GI50 (SNB-19 CNS) [µM]	GI50 (LOX IMVI melanoma) [µM]	GI50 (K-562 leukemia) [µM]	GI50 (HOP-62 NSCLC) [µM]	GI50 (HCC-2998 colon) [µM]	GI50 (MALME-3M melanoma) [µM]
C=C(Br)C(C)(Br)CCC(Br)C(C)(C)Cl (configuration not stated)	20.4	36.1	34.4	33.5	> 47.5	39.4	32.7	72	39.3	–	–	–	–	–	–	–	–	–	–	–
O=C1NCC2(CCN(CCCC3(c4ccc(F)cc4)OCCO3)CC2)N1c1ccccc1	> 100	> 100	> 100	> 100	> 100	> 100	> 100	> 100	> 100	> 100	–	–	–	–	–	–	–	–	–	–
Nc1ncnc2c1nnn2C1OC(CO)C(O)C1O (configuration not stated)	4.51	18.8	> 52.5	14	13.9	5.78	5.32	4.72	4.62	3.77	0.38	0.467	–	–	–	–	–	–	–	–
Cc1cc2c(cc1Cl)SC(N(N(C)C)S(=O)(=O)c1ccc(Cl)cc1)=NS2(=O)=O	43.9	> 100	> 100	> 100	> 100	96.1	44.6	67.3	62	> 100	34.8	23.4	11.1	32.4	25.2	33.4	31.8	29.6	17	22
CCOC(=O)c1cc2nc3ccccc3c(=O)n2c2ccccc12	> 10	> 10	> 10	> 10	> 10	> 10	> 10	> 10	> 10	> 10	–	–	–	–	–	–	–	–	–	–
O=C(/C=C/c1ccc(Cl)cc1)c1ccc(Nc2ccnc3cc(Cl)ccc23)cc1	> 100	> 100	> 100	> 100	> 100	> 100	> 100	> 100	> 100	> 100	38.1	36.3	> 100	> 84	> 57.6	> 46.6	4.98	99.2	> 80.5	> 100
CCN(CC)c1ccc(-c2cc(-c3cc(OC)c(OC)c(OC)c3)nc(N3CCOCC3)c2C#N)cc1	83.3	> 100	> 100	9.94	> 19.9	16.5	11.1	12.2	> 29.9	0.791	1.9	0.507	7.07	5.96	12.8	0.189	1	2.24	1.97	2.28
N#CC(C#N)=CNC(N)=S	> 100	> 100	> 100	> 100	> 100	> 100	> 100	> 100	> 100	> 100	–	–	–	–	–	–	–	–	–	–
O=[N+]([O-])C(/C=C(\Cl)n1nnc2ccccc21)=C(/Cl)n1nnc2ccccc21	> 100	> 100	> 100	> 100	> 100	> 100	> 100	> 100	> 100	> 100	–	–	–	–	–	–	–	–	–	–
Fc1cc2[nH]ncc2c2c3c(c(-c4cn[nH]c4)nc12)CCCC3	6.12	4.01	17.1	> 28	> 100	> 21	5.75	3.46	3.16	2.4	2.38	0.624	0.829	1.31	1.65	0.486	1.55	1.6	1.52	0.953
C=C1NC(=O)C(C(C)CC)NC(=O)C2CSCC(NC(=O)CCC(=O)O)C(=O)NC(Cc3ccccc3)C(=O)NC(C)C(=O)NC(CC(C)CC)C(=O)NC(C(=O)NC(Cc3ccccc3)C(=O)N3CCCC3C(=O)N2)C(C)OC(=O)C(CO)NC(=O)C(C(O)COC)N(C)C(=O)C(C(C)C)NC(=O)C(CC(C)CC)NC1=O (configuration not stated)	0.359	> 6	> 6	> 6	> 6	> 6	> 6	> 6	> 6	> 6	0.0358	0.0115	0.00411	0.0342	0.0255	0.0304	0.0124	0.0198	0.0377	0.0326
CC[C@H](Nc1ncnc2nc[nH]c12)c1oc2ccccc2c(=O)c1-c1cccc(F)c1	> 100	> 100	> 100	> 100	> 100	> 100	> 100	86.9	> 100	> 100	21.4	14.1	19.7	22.6	30.5	26.3	17.4	33.8	35.7	25.1
CC1(C)C2CCC(=O)C1CC2 (configuration not stated)	> 100	> 100	> 100	> 100	> 100	> 100	> 100	> 100	> 100	> 100	–	–	–	–	–	–	–	–	–	–
N=Nc1c(OC(=O)Nc2cccc(Cl)c2)[nH]c2ccccc12	11.3	27.9	18.5	18.2	> 52.8	13.1	17.5	40	26.5	20.8	–	–	–	–	–	–	–	–	–	–
COc1cc(OC)cc(-c2cc(=O)c3c(OC)c(OC)c(OC)c(OC)c3o2)c1	51.1	> 100	> 100	> 100	> 100	> 100	> 100	90.6	> 100	> 100	–	–	–	–	–	–	–	–	–	–
COc1ccc(-c2nnc(COc3ccc(C(=O)/C=C/c4ccco4)cc3)o2)cc1	5.62	8.25	18.2	3.65	7.45	7.23	5.26	43.1	7.43	3.18	1.89	7.43	2.59	2.76	5.56	1.71	2.77	2.5	2.32	2.82
Cc1ccccc1S(=O)(=O)OC1NS(=O)(=O)c2ccccc21 (configuration not stated)	> 100	> 100	> 100	> 100	> 100	> 100	> 100	> 100	> 100	> 100	–	–	–	–	–	–	–	–	–	–
O=S(=O)(CCn1c(Sc2ccccc2)c(Sc2ccccc2)c2ccccc21)c1ccccc1	> 100	> 100	> 100	> 100	> 100	> 100	> 100	> 100	> 100	> 100	–	–	–	–	–	–	–	–	–	–
O=c1c2sccc2n(CC2COc3ccccc3O2)c(=O)n1O (configuration not stated)	> 100	> 100	> 100	> 100	> 100	> 100	> 100	> 100	81.5	> 100	41.7	15.1	6.2	13.6	12.8	6.45	4.1	8.41	7.6	20
O=C1OC(O)[C@@H]2[C@H]1[C@H]1CC[C@@H]2O1 (some centres not stated)	74.9	> 100	> 100	> 100	> 100	> 100	4.41	> 100	77.3	> 100	> 100	> 100	26.3	> 100	> 100	> 100	> 100	> 100	2.19	28.1
CC(C)[C@H]1COC(=O)N1[C@@H]1C(=O)N([C@@H](CCC(=O)N2CCN(C3CCCC3)CC2)C(=O)N[C@@H]2CCCc3ccccc32)[C@@H]1/C=C/c1cccc(Br)c1	3.51	2.83	14.5	4.69	4.95	4.96	3.63	9.31	3.26	1.55	2.01	2.5	1.75	1.11	2.77	0.376	2.17	1.82	1.83	1.62
COc1cc2c(c(OC)c1OC)-c1ccc(OC)c(=O)cc1C(NC(=O)c1ccc(N=[N+]=[N-])cc1)CC2 (configuration not stated)	0.0387	> 100	> 100	> 100	> 39.2	> 95.1	0.0513	> 100	> 100	24.9	–	–	–	–	–	–	–	–	–	–
COc1cc2c3c(n(C)c(=O)c2cc1OC)-c1cc2c(cc1/C3=C\CCCN)OCO2	23.4	66.9	> 100	5.02	12	26.6	32.3	87.6	38.6	2.52	1.23	24.7	0.61	4.93	18.7	1.06	1.31	3.64	10.4	10.1
O=C(/C=C/c1ccncc1)c1cc(Cl)ccc1O	29.6	63.7	40.2	34.1	–	43.8	28.4	> 100	45.5	29.2	17.9	39.5	14.1	22.1	17.7	13.2	–	18.3	13.5	19.7
COc1ccc(/C=C(/C#N)n2nnc3cccc(F)c32)cc1	> 100	> 100	82.1	> 100	> 100	> 100	7.14	6.41	> 100	> 100	2.42	1.66	0.301	2.31	2.38	0.78	0.352	3.25	1.83	0.69
CN1CCN(CCCn2c(=O)c3sc4ncccc4c3n3nnc(-c4ccccc4)c23)CC1	14.4	13.2	15.8	14.5	2.05	15.3	13.4	16	17.9	11.5	7.39	6.47	7.23	6.45	8.41	5.33	0.881	8.19	6.77	9.41
Cc1cc(/C=C/c2ccc3cc(N(C)C)ccc3[n+]2C)c(C)n1-c1ccccc1	0.989	2.87	5.97	1.53	–	1.03	2.64	9.56	1.46	0.884	0.262	0.361	0.103	0.215	0.161	0.121	–	0.191	0.203	0.42
O=C(CSc1ccc(Cl)cc1)Nc1ccc(-c2nc3ccccc3s2)c(Cl)c1	–	22.4	74.2	24.7	> 100	24.8	16.3	7.99	36.2	> 100	3.94	2.56	–	3.24	4.31	5.07	4.14	5.91	3.09	4.77
C[C@@H]1CCC2[C@@H](C)[C@@H](OCC(CO[C@H]3OC4O[C@@]5(C)CC[C@H]6[C@H](C)CCC([C@H]3C)[C@@]46OO5)OC(=O)CCC(=O)O)OC3O[C@@]4(C)CC[C@@H]1[C@]32OO4 (some centres not stated)	15.4	20.1	23.1	17.3	> 42.2	22.1	–	34.9	12.4	> 100	< 0.0151	1.81	0.0628	–	10.1	< 0.01	< 0.0479	0.99	–	< 0.01
